“And” between values parts separate entries of the source, which are not always exact repeats. Equal entries are not always repeated. Where two headings read alike, the source gives them in different places.
Experiments:
Neurological toxicity [1] = experiment: Test 2: neurological toxicity, rats p.o.; format: in vivo; conditions: 30 mg/kg
Excerpt: (§1) Rats received test compounds orally.

MES-induced seizures [2] = experiment: Test 2: MES, rats p.o.; format: in vivo; conditions: 30 mg/kg
Excerpt: (§2) Maximal Electroshock Test (MES): The MES is a model for generalized tonic-clonic seizure and provides an indication of a compound's ability to prevent seizure spread when all neuronal circuits in the brain are maximally active. These seizures are highly reproducible and electro-physiologically consistent with human seizures. For all tests based on MES convulsions, 60 Hz of alternating current (50 mA in mice) is delivered for […] by corneal electrodes, which have been primed with an electrolyte solution containing an anesthetic agent (0.5% tetracaine hydrochloride). Mice were tested at various intervals following doses of 30, 100 and 300 mg/kg of test compound given by i.p. injection of a volume of 0.01 mL/g. Other doses can be used if indicated by previously known pharmacology. An animal is considered "protected" from MES-induced seizures upon abolition of the hind-limb tonic extensor component of the seizure.
as §1

[3] = tested on: minimal muscular or neurological impairment; experiment: Test 1: Acute toxicity, minimal motor impairment (rotorod), mice i.p.; format: in vivo; conditions: for Rotorod Toxicity: class symbol = dose
Procedure: (§3) Most of the prodrugs and mutual prodrugs of anticonvulsants described in this invention were evaluated at National Institute of Neurological Disorders and Stroke (NINDS), National Institute of Health (NIH), under their Antiepileptic Screening Program (ASP).
(§4) Test 1 is an initial screening for anticonvulsant activity in the Maximal Electroshock Test (MES) and Subcutaneous Metrazol Seizure Threshold Test (scMET) models combined with an initial assessment of toxicity (TOX) in mice via i.p. injection (see further explanation below). The data for each condition is presented as N/F, where N = number of animals protected from seizure and F = number of animals tested. For test of toxicity, N = number of animals displaying toxic effects and F = number of animals tested. Any deaths occurring during the test were recorded.

MES-induced seizures [4] = experiment: Test 1: Maximal Electroshock Test (MES), mice i.p.; format: in vivo; conditions: for MES: class symbol = dose
Procedure: as §3, §4, §2

MES-induced seizures [5] = experiment: Test 3: MES quantification (time to peak effect, ED50), rats p.o.; format: in vivo; conditions: for Biological Response MES (number of animal protected/number of animal tested): time 6 h
clonic seizures [6] = experiment: Test 1: Subcutaneous Metrazol Seizure Threshold Test (scMET), mice i.p.; format: in vivo; conditions: class symbol = dose
Procedure: as §3, §4
(§5) Subcutaneous Metrazol Seizure Threshold Test (scMET): Subcutaneous injection of the convulsant metrazol produces clonic seizures in laboratory animals. […] Animals were pretreated with various doses of the test compound given by i.p. injection. At the previously determined Time to Peak Effect (TPE) of the test compound, the dose of metrazol which will produce convulsions in 97% of animals (CD97: 85 mg/kg in mice) was injected into a loose fold of skin in the midline of the neck. The animals were placed in isolation cages to minimize stress and observed for the next 30 minutes for the presence or absence of a seizure. An episode of clonic spasms, approximately […], of the fore and/or hind limbs, jaws, or vibrissae is taken as the end point.

clonic seizures [7] = experiment: Test 3: scMET, rats p.o.; format: in vivo; conditions: 50 mg/kg
Procedure: as §5, §1
(§6) Table 1: Primary Screening (Test 1) data for Anticonvulsant Activity and Neurotoxicity in Mice (test compound administered i.p.)

Neurological toxicity [8] = experiment: Test 3: neurological toxicity, rats p.o.; format: in vivo
Excerpt: as §1, §6

mucosal damage = conditions: rats, oral, 3 hours after administration
[9] = In vitro plasma stability; conditions: rat plasma at 37 °C, 30 minutes incubation, HPLC analysis
Procedure: HPLC: Waters Allience analytical HPLC equipped with 2996 PDA detector and Empower software were used to analyze the samples.
HPLC Column: Waters X-Terra RP-18 analytical column, 150 X 3.9 mm, 5 .
HPLC Method: Flow: 1 mL/min, detecter set at 210 nm and at Maxplot (210-400 nm range). Solvent A: Acetonitrile; Solvent B: 0.1% TFA in water. Elution method: A linear gradient of 0-100% A.
The compounds were extracted back into acetonitrile with rigorous vortex.

[10] = tested on: carrageenan-induced rat paw edema; experiment: Carrageenan-induced rat paw edema model; format: in vivo; conditions: 75 mg/kg equivalent dose of aspirin, p.o.
Procedure: Male or female Sprague-Dawley rats weighing 150-200 g were used in the study. The rats were fed normal standard laboratory chow and maintained under standard conditions (room temperature of 22 ± 2 °C; 50 ± 10 % relative humidity; artificial light 06:00 to 18:00). All experimental procedures mentioned below are approved by institutional animal research committees and were performed in accordance with standard guidelines for the treatment of animals.
Anti-inflammatory activity of test compounds was measured in carrageenan-induced rat paw edema model (Takeuchi et al., J. Pharmacol. Exp. Ther. 1998, 286 (1), 115-121). […] We have not yet evaluated I-C1-NOPD5Bin this efficacy test.

[11] = Oral pharmacokinetics (plasma salicylate by HPLC); conditions: rats, 35 mg/kg equivalent dose

SMILES: CCOC(=O)CC1(CNC(=O)OCCSSCCOC(=O)Nc2nnc(-c3cccc(Cl)c3Cl)c(N)n2)CCCCC1 [I-AA-MPD12]
- Toxicity (number of animals exhibiting toxicity/number of animals tested) (Neurological toxicity [1]; 0.50 h): 0/4
- Toxicity (number of animals exhibiting toxicity/number of animals tested) (Neurological toxicity [1]; 1.00 h): 0/4
- Toxicity (number of animals exhibiting toxicity/number of animals tested) (Neurological toxicity [1]; 2.00 h): 0/4
- Toxicity (number of animals exhibiting toxicity/number of animals tested) (Neurological toxicity [1]; 4.00 h): 0/4
- MES (number of animal protected/number of animal tested) (MES-induced seizures [2]; 0.50 h): 0/4
- MES (number of animal protected/number of animal tested) (MES-induced seizures [2]; 1.00 h): 0/4
- MES (number of animal protected/number of animal tested) (MES-induced seizures [2]; 2.00 h): 1/4
- MES (number of animal protected/number of animal tested) (MES-induced seizures [2]; 4.00 h): 3/4
- toxicity (Test 1, in words) [3]: no or mild toxicity
- Rotorod Toxicity ([3]; 0.5 h): - (- = no activity or no toxicity at 300 mg/kg)
- Rotorod Toxicity ([3]; 4.0 h): - (- = no activity or no toxicity at 300 mg/kg)
- activity in MES (Test 1, in words) (MES-induced seizures [4]): active in MES
- MES (number of animal protected/number of animal tested) (MES-induced seizures [4]; 100 mg/kg (++), 4.0 h): 3/3
- MES (number of animal protected/number of animal tested) (MES-induced seizures [4]; 100 mg/kg (++), 6 hours after dosing): 1/3
- MES (number of animal protected/number of animal tested) (MES-induced seizures [4]; 300 mg/kg (+), 4.0 h): 1/1
- MES (MES-induced seizures [4]; 0.5 h): - (- = no activity or no toxicity at 300 mg/kg)
- MES (MES-induced seizures [4]; at 6 hours after dosing (footnotes g, m)): ++ (++ = activity or toxicity at 100 mg/kg)
- Time to Peak Effect MES (number of animal protected/number of animal tested) (MES-induced seizures [5]; 15 mg/kg, 6.0 h): 2/4
- Time to Peak Effect MES (number of animal protected/number of animal tested) (MES-induced seizures [5]; 15 mg/kg, 8.0 h): 1/4
- Time to Peak Effect MES (number of animal protected/number of animal tested) (MES-induced seizures [5]; 30 mg/kg, 0.5 h): 0/4
- Time to Peak Effect MES (number of animal protected/number of animal tested) (MES-induced seizures [5]; 30 mg/kg, 1.0 h): 0/4
- Time to Peak Effect MES (number of animal protected/number of animal tested) (MES-induced seizures [5]; 30 mg/kg, 2.0 h): 1/4
- Time to Peak Effect MES (number of animal protected/number of animal tested) (MES-induced seizures [5]; 30 mg/kg, 4.0 h): 3/4
- Time to Peak Effect MES (number of animal protected/number of animal tested) (MES-induced seizures [5]; 30 mg/kg, 6.0 h): 4/4
- Time to Peak Effect MES (number of animal protected/number of animal tested) (MES-induced seizures [5]; 30 mg/kg, 8.0 h): 4/4
- Time to Peak Effect MES (number of animal protected/number of animal tested) (MES-induced seizures [5]; 30 mg/kg, 24 h): 2 out of 4 and 2/4
- potency compared with parent drug lamotrigine (in words) (MES-induced seizures [5]; MES): less potent than lamotrigine
- ED50 (MES-induced seizures [5]; MES model, at the compound's time of peak effect (4, 6 or 8 h)): 17 mg/kg
- duration of protection (in words) (MES-induced seizures [5]; MES, 30 mg/kg, up to 24 h): significant extension in the duration of protection
- time to peak effect (MES-induced seizures [5]; MES, dose of 30 mg/kg): 6.0 to 8.0 h
- Biological Response MES (number of animal protected/number of animal tested) (MES-induced seizures [5]; dose 7.5 mg/kg): 0/8
- Biological Response MES (number of animal protected/number of animal tested) (MES-induced seizures [5]; dose 15 mg/kg): 5/8
- Biological Response MES (number of animal protected/number of animal tested) (MES-induced seizures [5]; dose 30 mg/kg): 7/8
- Biological Response MES (number of animal protected/number of animal tested) (MES-induced seizures [5]; dose 60 mg/kg): 7/8
- ScMET (clonic seizures [6]; 0.5 h): - (- = no activity or no toxicity at 300 mg/kg)
- ScMET (clonic seizures [6]; 4.0 h): - (- = no activity or no toxicity at 300 mg/kg)
- Time to Peak Effect ScMET (number of animal protected/number of animal tested) (clonic seizures [7]; 1.0 h): 1/4
- Time to Peak Effect ScMET (number of animal protected/number of animal tested) (clonic seizures [7]; 2.0 h): 0/4
- Time to Peak Effect ScMET (number of animal protected/number of animal tested) (clonic seizures [7]; 4.0 h): 0/4
- Time to Peak Effect ScMET (number of animal protected/number of animal tested) (clonic seizures [7]; 6.0 h): 1/4
- Time to Peak Effect ScMET (number of animal protected/number of animal tested) (clonic seizures [7]; 8.0 h): 2/4
- Time to Peak Effect ScMET (number of animal protected/number of animal tested) (clonic seizures [7]; 24 h): 0/4
- toxicity (in words) (Neurological toxicity [8]; 50 mg/kg): none of the animals exhibited toxicity
- Toxicity (number of animals exhibiting toxicity/number of animals tested) (Neurological toxicity [8]; 50 mg/kg, 1.0 h): 0/4 (5 0)
- Toxicity (number of animals exhibiting toxicity/number of animals tested) (Neurological toxicity [8]; 50 mg/kg, 2.0 h): 0/4 (50)
- Toxicity (number of animals exhibiting toxicity/number of animals tested) (Neurological toxicity [8]; 50 mg/kg, 4.0 h): 0/4 (50)
- Toxicity (number of animals exhibiting toxicity/number of animals tested) (Neurological toxicity [8]; 50 mg/kg, 6.0 h): 0/4 (50)
- Toxicity (number of animals exhibiting toxicity/number of animals tested) (Neurological toxicity [8]; 50 mg/kg, 8.0 h): 0/4 (50)
- Toxicity (number of animals exhibiting toxicity/number of animals tested) (Neurological toxicity [8]; 50 mg/kg, 24 h): 0/4 (50)
- toxicity (in words) (Neurological toxicity [8]; 100 mg/kg): one of eight animals exhibited mild ataxia
- Toxicity (number of animals exhibiting toxicity/number of animals tested) (Neurological toxicity [8]; 100 mg/kg, 8.0 h, mild ataxia only (footnote h)): 1/8 (100)^h

SMILES: CC(=O)Oc1ccccc1C(=O)OCCSSCCO[N+](=O)[O-] [I-C1-NOPD4]
- ulcer development (in words) (mucosal damage; 100 mg/kg equivalent doses): none of the animals treated with the test compounds showed any signs of development of ulcers
- release of parent drug / conversion to salicylate [9]: converting to the expected metabolite (salicylate)
- anti-inflammatory activity (in words) [10]: significant activity during the first two hours after drug administration

SMILES: CC(=O)Oc1ccccc1C(=O)NCCSSCCO[N+](=O)[O-] [I-C1-NOPD6]
- prodrug or salicylate found in plasma ([11]; any time point up to 24 hrs): neither the prodrug nor the salicylate was found in the plasma
- ulcer development (in words) (mucosal damage; 100 mg/kg equivalent doses): none of the animals treated with the test compounds showed any signs of development of ulcers

SMILES: CC(=O)Oc1ccccc1C(=O)[N-]C(=O)OCCSSCCO[N+](=O)[O-].[Na+] [I-C1-NOPD5B]
- salicylate release profile (in words) [11]: released in a sustained and controlled manner starting from 1 hour through 12 hours
- ulcer development (in words) (mucosal damage; 200 mg/kg equivalent doses): none of the animals treated with the test compounds showed any signs of development of ulcers

SMILES: CC(=O)Oc1ccccc1C(=O)NC(=O)OCCSSCCO[N+](=O)[O-] [I-C1-NOPD5A]
- ulcer development (in words) (mucosal damage; 200 mg/kg equivalent doses): none of the animals treated with the test compounds showed any signs of development of ulcers
- release of parent drug / conversion to salicylate [9]: converting to the expected metabolite (salicylate)
- anti-inflammatory activity (in words) [10]: negligible anti-inflammatory activity at any time point tested

— EP2266622A2, “Prodrugs containing novel bio-cleavable linkers” (Piramal Life Sciences Limited, priority 2004, dated 2006)
